Reference: US20150299188A1, “HETEROCYCLIC COMPOUND” (priority 2012, published 2015)

test system: FLAP (5-lipoxygenase activating protein); test: In vitro binding test: displacement of [3H]-7-chloro-3-(5-((3-fluoropyridin-2-yl)methoxy)-2-methylphenyl)-3,4-dihydroquinazolin-2(1H)-one from Sf9 microsome fractions; set-up: species or system human and mouse; conditions: Sf9 microsome fractions expressing FLAP; 100% = radioligand binding with 10 μM sodium 3-(3-(tert-butylsulfanyl)-1-(4-chlorobenzyl)-5-isopropyl-1H-indol-2-yl)-2,2-dimethylpropanoate, 0% = DMSO; test compound concentration not given
Procedure, shortened: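 Sf9 microsomes expressing human or mouse FLAP (2 μg/mL) preincubated with compound 10 min at room temperature, then 120 nM tritiated quinazolinone ligand added for 60 min; buffer 100 mM Tris-HCl pH 7.5 with NaCl, EDTA, DTT, glycerol, Tween20. Bound ligand filtered and counted by scintillation; 10 μM indole propanoate defines 100% inhibition, DMSO 0%.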

inhibitory rate (%) | Compound
105% | O=C1Nc2nccc(C(F)(F)F)c2CN1c1cc2c(cc1Cl)CCC(c1ncccc1F)O2 (stereo not drawn) [Example 57, 3-(6-chloro-2-(3-fluoropyridin-2-yl)-3,4-dihydro-2H-chromen-7-yl)-5-(trifluoromethyl)-3,4-dihydropyrido[2,3-d]pyrimidin-2(1H)-one]
103% | Cc1cc2c(cc1N1Cc3c(ccnc3C(F)(F)F)NC1=O)OC(c1ncccc1F)CC2 (stereo not drawn) [Example 4, 3-(2-(3-fluoropyridin-2-yl)-6-methyl-3,4-dihydro-2H-chromen-7-yl)-5-(trifluoromethyl)-3,4-dihydropyrido[4,3-d]pyrimidin-2(1H)-one]
104% | O=C1Nc2c(N3CCCC3)ncc(Cl)c2CN1c1cc2c(cc1Cl)CCC(c1ncccc1F)O2 (stereo not drawn) [Example 153, 5-chloro-3-(6-chloro-2-(3-fluoropyridin-2-yl)-3,4-dihydro-2H-chromen-7-yl)-8-(pyrrolidin-1-yl)-3,4-dihydropyrido[3,4-d]pyrimidin-2(1H)-one]
102% | COCCOc1ccc2c(=O)n(-c3cc(OCc4ncccc4F)ccc3C)c(=O)[nH]c2c1 [Example 356, 3-(5-((3-fluoropyridin-2-yl)methoxy)-2-methylphenyl)-7-(2-methoxyethoxy)quinazoline-2,4(1H,3H)-dione]
95% | Cc1ccc(OCc2ncccc2F)cc1N1Cc2c(cc[nH]c2=O)NC1=O [Example 310, 3-(5-((3-fluoropyridin-2-yl)methoxy)-2-methylphenyl)-4,6-dihydropyrido[4,3-d]pyrimidine-2,5(1H,3H)-dione]
112% | Cc1cc2c(cc1N1Cc3c(cc(-c4ccnn4C)nc3C3CC3)NC1=O)OC(c1ncccc1F)CC2 (stereo not drawn) [Example 93, 5-cyclopropyl-3-(2-(3-fluoropyridin-2-yl)-6-methyl-3,4-dihydro-2H-chromen-7-yl)-7-(1-methyl-1H-pyrazol-5-yl)-3,4-dihydropyrido[4,3-d]pyrimidin-2(1H)-one]
106% | Cc1cc2c(cc1N1Cc3c(ccnc3C(C)(C)O)NC1=O)OC(c1ncccc1F)CC2 (stereo not drawn) [Example 33, 3-(2-(3-fluoropyridin-2-yl)-6-methyl-3,4-dihydro-2H-chromen-7-yl)-5-(2-hydroxypropan-2-yl)-3,4-dihydropyrido[4,3-d]pyrimidin-2(1H)-one]
111% | O=C1Nc2cc(-c3ncon3)nc(C3CC3)c2CN1c1cc2c(cc1Cl)CCC(c1ncccc1F)O2 (stereo not drawn) [Example 136, 3-(6-chloro-2-(3-fluoropyridin-2-yl)-3,4-dihydro-2H-chromen-7-yl)-5-cyclopropyl-7-(1,2,4-oxadiazol-3-yl)-3,4-dihydropyrido[4,3-d]pyrimidin-2(1H)-one]
91% | O=C1Nc2nccc(OCC(F)(F)F)c2CN1c1cc2c(cc1Cl)CCC(c1ncccc1F)O2 (stereo not drawn) [Example 61, 3-(6-chloro-2-(3-fluoropyridin-2-yl)-3,4-dihydro-2H-chromen-7-yl)-5-(2,2,2-trifluoroethoxy)-3,4-dihydropyrido[2,3-d]pyrimidin-2(1H)-one]
94% | Cc1ccc(OCc2ncccc2F)cc1-n1c(=O)[nH]c2ccc(Cl)cc2c1=O [Example 355, 6-chloro-3-(5-((3-fluoropyridin-2-yl)methoxy)-2-methylphenyl)quinazoline-2,4(1H,3H)-dione]
110% | O=C1Nc2ccccc2CN1c1cc(OCc2ncccc2F)ccc1C(F)(F)F [Example 214, 3-(5-((3-fluoropyridin-2-yl)methoxy)-2-(trifluoromethyl)phenyl)-3,4-dihydroquinazolin-2(1H)-one]
91% | Cc1cc2c(cc1N1Cc3c(F)cnc(C4CC4)c3NC1=O)OC(c1ncccc1F)CC2 (stereo not drawn) [Example 168, 8-cyclopropyl-5-fluoro-3-(2-(3-fluoropyridin-2-yl)-6-methyl-3,4-dihydro-2H-chromen-7-yl)-3,4-dihydropyrido[3,4-d]pyrimidin-2(1H)-one]
